Results on 10 compounds are retold here after patent US7396524B2, “Methods for screening compounds for proarrhythmic risk and antiarrhythmic efficacy” (Main Line Health Heart Center, priority 2005, dated 2008).

Like-named read-outs stand apart in the source and are kept apart here.

Data set [1] relates to rabbit left ventricular wedge preparations. The data set is described as follows: Rabbit left ventricular wedge preparation: endocardial APD90, EAD and TdP. As to the method:
Female rabbits weighting 2.5-3 kg were anticoagulated with heparin and anesthetized with pentobarbital (30-35 mg/kg, i.v.). The chest was opened via a left thoracotomy, and the heart was excised and placed in a cardioplegic solution consisting of cold (4° C.) normal Tyrode's solution. Transmural wedges with dimensions of approximately 1.5 cm wide and 2-3 cm long were dissected from the left ventricle. The wedge tissue was cannulated via the circumflex or left main artery and perfused with cardioplegic solution. The preparation was then placed in a small tissue bath and arterially perfused with Tyrode's solution containing 4 mM K^+ buffered with 95% O2 and 5% CO2 (T: 35.7±0.1° C., perfusion pressure: 35-45 mmHg). The ventricular wedge was allowed to equilibrate in the tissue bath until electrically stable, approximately one hour. The preparations were stimulated at basic cycle lengths (BCL) of 1000 and 2000 ms using bipolar silver electrodes insulated except at the tips and applied to the endocardial surface.
A transmural ECG signal was recorded in all experiments using extracellular silver/silver chloride electrodes placed in the Tyrode's solution bathing the preparation. Electrodes were placed 1.0 to 1.5 cm from the epicardial and endocardial surfaces, along the same vector as the transmembrane recordings (Epi: “+” pole). The QT interval was defined as the time from the onset of the QRS to the point at which the final downslope of the T wave crosses the isoelectric line. Transmembrane action potentials were recorded simultaneously from epicardial and endocardial sites of the rabbit left ventricular wedge preparations. The action potential duration was measured at 90% repolarization (APD90).

Data set [2] deals with rabbit left ventricular wedge preparations and single rabbit ventricular myocytes.
The conditions of data set [3]: cited from earlier work.
For data set [4] the following is noted: experimental data; cited from earlier work.
The test system of another data set is Purkinje fiber. The settings on record: cited from earlier work.
The subject of data set [5] is L-type calcium channel current (ICa,L). Briefly: Ratio of ICa,L recovery time constant (whole-cell voltage clamp, double-pulse protocol) to endocardial APD90. It counts as cell-based. The settings on record: 30 μM; control ratio 0.448; rabbit. As to the method:
Single rabbit ventricular myocytes were isolated using the enzymatic digestion method as described in Rials et al., Circulation 1997; 96:1330-1336. The rabbit heart was initially perfused with 500 ml Ca^2+-free solution (in mM: NaCl 125, KCl 3.5, KH2PO4 1.5, MgCl2 1, NaHCO3 20, glucose 10) gassed with 95% O2-5% CO2 at 37° C. at a rate of 30 ml/min with a peristaltic pump. The heart was then perfused with 80 ml enzyme solution (48 mg collagenase (type II), 12 mg hyaluronidase, 80 mg BSA, and 300 mg taurine to the Ca^2+-free solution). The enzyme solution passed through the heart a single time before 40 ml, and recirculation after 40 ml. […]
ICa,L was recorded in rabbit single ventricular myocytes at 35.7±0.1° C. using the whole-cell voltage-clamp technique as described by Linz and Meyer, Pflugers Arch. […]
The action potentials were first recorded from the endocardium of the rabbit left ventricular wedge preparation at a basic cycle length of 2000 ms before and after exposure to a test compound. […]
The ratio of ICa,L recovery time constant to endocardial APD90 under control and after exposure to one of the test compounds described above was determined as follows: the ratio equals τ(ms)/APD90 (ms). The relative TdP risk score was then calculated based on the change in the QT interval and the ratio according to the criteria listed in Table 1. […]

Consider `CN(CCOc1ccc(NS(C)(=O)=O)cc1)CCc1ccc(NS(C)(=O)=O)cc1` [dofetilide], for which the “increase in rabbit endocardial APD90” value in data set [1] (dofetilide 0.003 μM vs control, n=8) amounted to 76%. For the same compound, in data set [1] (dofetilide 0.003 μM, rabbit left ventricular wedge preparations), the “development of EAD (preparations)” value is on record as “seven of eight”. In addition, the “TdP (rabbits)” value in data set [1] (dofetilide 0.01 μM) was “all of eight”. The “rabbit endocardial APD90” value in data set [1] (female, rabbit, 0.003 μM) worked out at 443 ± 27 ms.

Take `C=C[C@H]1C[N@@]2CC[C@H]1C[C@@H]2[C@@H](O)c1ccnc2ccc(OC)cc12` [quinidine]: in data set [2] (20 min), the “Maximal TdP Score” value amounted to 11.8 ± 0.2 and the “maximal TdP score in the testing concentration range” value worked out at 11.75±0.22.

As for `CC(C)COCC(CN(Cc1ccccc1)c1ccccc1)N1CCCC1` (stereo not shown) [bepridil], the “TdP risk in humans” value in data set [3] is “known to cause TdP in humans”. Besides, in data set [4], the “increase in the QT interval” value is on record as “fails to produce a significant increase”. The “increase in the action potential duration of the Purkinje fiber” value in the data set with Purkinje fiber was “have not been shown to produce a significant increase”. Besides, in data set [2] (20 min), the “Maximal TdP Score” value was found to be 7.5 ± 0.3 and the “maximal TdP score in the testing concentration range” value came to 7.50±0.26.

Take `CNCCC(Oc1ccc(C(F)(F)F)cc1)c1ccccc1` (stereo not shown) [fluxetine]: the “maximal TdP score in the testing concentration range” value in data set [2] (Table 1 criteria, means ±SEM, text and FIG. 7 legend) was found to be 0.00±0.00. Further, in data set [2] (Table 2, Table 1 criteria, means ±SEM), the “Maximal TdP Score” value worked out at 0.0 ± 0.0.

Regarding `O=C(CCCN1CCC(O)(c2ccc(Cl)cc2)CC1)c1ccc(F)cc1` [haloperidol], in data set [2] (20 min), the “Maximal TdP Score” value was 4.2 ± 0.6 and the “maximal TdP score in the testing concentration range” value is on record as 4.20±0.58.

As to `CN(C)CCCC1(c2ccc(F)cc2)OCc2cc(C#N)ccc21` (stereo not shown) [citalopram], in data set [2] (20 min), the “Maximal TdP Score” value was 1.3 ± 0.2 and the “maximal TdP score in the testing concentration range” value is on record as 1.25±0.22.

For the compound `COc1c(N2C[C@@H]3CCCN[C@@H]3C2)c(F)cc2c(=O)c(C(=O)O)cn(C3CC3)c12` [moxifloxacin], in data set [2] (20 min), the “Maximal TdP Score” value stood at 4.0 ± 0.0 and the “maximal TdP score in the testing concentration range” value is 4.00±0.00.

Regarding `O=C(NCC1CCCCN1)c1cc(OCC(F)(F)F)ccc1OCC(F)(F)F` (stereo not shown) [flecainide], in data set [2] (20 min), the “Maximal TdP Score” value worked out at 1.3 ± 0.2 and the “maximal TdP score in the testing concentration range” value is listed as 1.25±0.22.

As to `CC(C)NCC(O)c1ccc(NS(C)(=O)=O)cc1` (stereo not shown) [sotalol], in data set [5], the “ratio of ICa,L recovery time constant (τ) to endocardial APD90” value is listed as 0.325. In addition, in data set [2] (20 min), the “Maximal TdP Score” value is recorded as 10.0 ± 0.0 and the “maximal TdP score in the testing concentration range” value was determined as 10.00±0.00.

Consider `CCCCc1oc2ccccc2c1C(=O)c1cc(I)c(OCCN(CC)CC)c(I)c1` [amiodarone], for which the “TdP risk in humans” value in data set [3] was “rarely causes TdP”.
